This note sets out measurements from US20220096487A1 (priority 2019, published 2022).

In data set [1] the test system is lamivudine-resistant HIV-1. Put plainly: Cross-resistance against lamivudine-resistant HIV-1.
A short description of data set [2]: Drug interaction trials: effect of coadministered drugs on pharmacokinetics of dolutegravir (Table 9). The following applies: dolutegravir 50 mg single dose.
The nature of data set [3]: Drug interaction trials: effect of dolutegravir on pharmacokinetics of coadministered drugs (Table 8).
The conditions of data set [4]: multi-drug regimen, HIV-1/HCV co-infected subjects.
Data set [5] concerns phosphorylation of lamivudine, stavudine, and zidovudine. Nature of the data set: In vitro phosphorylation of nucleoside analogues with ribavirin. The class given is cell-based.
Data set [6] can be described thus: Established and other potentially significant drug interactions for dolutegravir (Table 5). The class given is in vivo, human. From the text:
These recommendations are based on either drug interaction trials or predicted interactions due to the expected magnitude of interaction and potential for serious adverse events or loss of efficacy [see Contraindications (4), Clinical Pharmacology (12.3)].

The mark [7] stands for this setting: Ferrous fumarate 324 mg 2 h after dolutegravir.
Where [8] appears, read: Ferrous fumarate 324 mg simultaneous administration (fasted).
[9] abbreviates: Ferrous fumarate 324 mg simultaneous administration (fed).
Where [10] appears, read: Daclatasvir 60 mg once daily, dolutegravir 50 mg once daily, No Effect = 1.00.
The mark [11] stands for this setting: metabolite GS-331007 after Sofosbuvir 400 mg once daily, dolutegravir 50 mg once daily.
Where [12] appears, read: Metformin 500 mg twice daily, dolutegravir 50 mg once daily.
Where [13] appears, read: Metformin 500 mg twice daily, dolutegravir 50 mg twice daily.
[14] abbreviates: Ethinyl estradiol 0.035 mg, dolutegravir 50 mg twice daily.
The mark [15] stands for this setting: Grazoprevir 200 mg once daily, dolutegravir 50 mg single dose.
The mark [16] stands for this setting: Sofosbuvir 400 mg once daily, dolutegravir 50 mg once daily.
The mark [17] stands for this setting: Norelgestromin 0.25 mg, dolutegravir 50 mg twice daily.
Setting [18] is: Calcium carbonate 1,200 mg 2 h after dolutegravir.
The mark [19] stands for this setting: Calcium carbonate 1,200 mg simultaneous administration (fasted).
[20] abbreviates: Calcium carbonate 1,200 mg simultaneous administration (fed).

SMILES strings stand for the structures.

As for `Cc1cn([C@H]2C[C@H](N=[N+]=[N-])[C@@H](CO)O2)c(=O)[nH]c1=O` [Zidovudine], the “Antiretroviral activity against lamivudine-resistant HIV-1” value in data set [1] is on record as “maintains its antiretroviral activities”.
Take `C[C@@H]1CCO[C@H]2Cn3cc(C(=O)NCc4ccc(F)cc4F)c(=O)c([O-])c3C(=O)N12.[Na+]` [Dolutegravir sodium, sodium (4R,12aS)-9-{[(2,4-difluorophenyl)methyl]carbamoyl}-4-methyl-6,8-dioxo-3,4,6,8,12,12a-hexahydro-2H-pyrido[1′, 2′:4,5]pyrazino[2,1-b][1,3]oxazin-7-olate]: the Solubility in water entry in “Solubility in water” is “slightly soluble”.
Turning to `O=C([O-])/C=C/C(=O)[O-].[Fe+2]` [Ferrous fumarate], in data set [2] (setting [7]), the “Geometric Mean Ratio of Dolutegravir AUC with/without Coadministered Drug” value was 0.95, the “Geometric Mean Ratio of Dolutegravir Cmax with/without Coadministered Drug” value stood at 0.99 and the “Geometric Mean Ratio of Dolutegravir Cτ or C24 with/without Coadministered Drug” value is given as 0.92. Moreover, in data set [2] (setting [8]), the “Geometric Mean Ratio of Dolutegravir AUC with/without Coadministered Drug” value turned out to be 0.46, the “Geometric Mean Ratio of Dolutegravir Cmax with/without Coadministered Drug” value was determined as 0.43 and the “Geometric Mean Ratio of Dolutegravir Cτ or C24 with/without Coadministered Drug” value is reported as 0.44. In data set [2] (setting [9]), the “Geometric Mean Ratio of Dolutegravir AUC with/without Coadministered Drug” value was determined as 0.98, the “Geometric Mean Ratio of Dolutegravir Cmax with/without Coadministered Drug” value amounted to 1.03 and the “Geometric Mean Ratio of Dolutegravir Cτ or C24 with/without Coadministered Drug” value was found to be 1.00.
For the compound `COC(=O)N[C@H](C(=O)N1CCC[C@H]1c1nc(-c2ccc(-c3ccc(-c4c[nH]c([C@@H]5CCCN5C(=O)[C@@H](NC(=O)OC)C(C)C)n4)cc3)cc2)c[nH]1)C(C)C` [Daclatasvir], in data set [3] (setting [10]), the “Geometric Mean Ratio of Coadministered Drug AUC with/without Dolutegravir” value is on record as 0.98, the “Geometric Mean Ratio of Coadministered Drug Cmax with/without Dolutegravir” value was determined as 1.03 and the “Geometric Mean Ratio of Coadministered Drug Cτ or C24 with/without Dolutegravir” value came out at 1.06.
Regarding `C[C@@]1(F)[C@H](O)[C@@H](CO)O[C@H]1n1ccc(=O)[nH]c1=O` [Metabolite (GS-331007)], in data set [3] (setting [11]), the “Geometric Mean Ratio of Coadministered Drug AUC with/without Dolutegravir” value is recorded as 0.99, the “Geometric Mean Ratio of Coadministered Drug Cmax with/without Dolutegravir” value is listed as 1.01 and the “Geometric Mean Ratio of Coadministered Drug Cτ or C24 with/without Dolutegravir” value turned out to be 0.99.
With `Cc1ncc2n1-c1ccc(Cl)cc1C(c1ccccc1F)=NC2` [Midazolam], the “Geometric Mean Ratio of Coadministered Drug AUC with/without Dolutegravir” value in data set [3] (Midazolam 3 mg, dolutegravir 25 mg once daily) is listed as 0.95.
Turning to `NC(=O)c1ncn([C@@H]2O[C@H](CO)[C@@H](O)[C@H]2O)n1` [ribavirin], in data set [4], the “Pharmacokinetic or pharmacodynamic interaction with lamivudine, stavudine, or zidovudine” value was “no pharmacokinetic”. Further, the “Effect on phosphorylation of lamivudine, stavudine, and zidovudine” value in data set [5] was “reduces phosphorylation”.
As for `CN(C)C(=N)N=C(N)N` [Metformin], the “Effect on Concentration of metformin” value in data set [6] (concomitant dolutegravir) is given as “↑Metformin”. Moreover, in data set [3] (setting [12]), the “Geometric Mean Ratio of Coadministered Drug AUC with/without Dolutegravir” value is 1.79 and the “Geometric Mean Ratio of Coadministered Drug Cmax with/without Dolutegravir” value is reported as 1.66. In addition, in data set [3] (setting [13]), the “Geometric Mean Ratio of Coadministered Drug AUC with/without Dolutegravir” value worked out at 2.45 and the “Geometric Mean Ratio of Coadministered Drug Cmax with/without Dolutegravir” value amounted to 2.11.
As for `C#C[C@]1(O)CC[C@H]2[C@@H]3CCc4cc(O)ccc4[C@H]3CC[C@@]21C` [Ethinyl estradiol], in data set [3] (setting [14]), the “Geometric Mean Ratio of Coadministered Drug AUC with/without Dolutegravir” value was 1.03, the “Geometric Mean Ratio of Coadministered Drug Cmax with/without Dolutegravir” value is listed as 0.99 and the “Geometric Mean Ratio of Coadministered Drug Cτ or C24 with/without Dolutegravir” value was 1.02.
For `C=C[C@@H]1C[C@]1(NC(=O)[C@@H]1C[C@@H]2CN1C(=O)[C@H](C(C)(C)C)NC(=O)O[C@@H]1C[C@H]1CCCCCc1nc3ccc(OC)cc3nc1O2)C(=O)NS(=O)(=O)C1CC1.O` [Grazoprevir], in data set [3] (setting [15]), the “Geometric Mean Ratio of Coadministered Drug AUC with/without Dolutegravir” value is 0.81, the “Geometric Mean Ratio of Coadministered Drug Cmax with/without Dolutegravir” value came out at 0.64 and the “Geometric Mean Ratio of Coadministered Drug Cτ or C24 with/without Dolutegravir” value was found to be 0.86.
Consider `CC(C)OC(=O)[C@H](C)N[P@](=O)(OC[C@H]1O[C@@H](n2ccc(=O)[nH]c2=O)[C@](C)(F)[C@@H]1O)Oc1ccccc1` [Sofosbuvir], for which, in data set [3] (setting [16]), the “Geometric Mean Ratio of Coadministered Drug AUC with/without Dolutegravir” value was 0.92 and the “Geometric Mean Ratio of Coadministered Drug Cmax with/without Dolutegravir” value is 0.88.
Take `C#C[C@]1(O)CC[C@H]2[C@@H]3CCC4=CC(=NO)CC[C@@H]4[C@H]3CC[C@@]21CC` (mixture of isomers) [Norelgestromin]: in data set [3] (setting [17]), the “Geometric Mean Ratio of Coadministered Drug AUC with/without Dolutegravir” value is 0.98, the “Geometric Mean Ratio of Coadministered Drug Cmax with/without Dolutegravir” value amounted to 0.89 and the “Geometric Mean Ratio of Coadministered Drug Cτ or C24 with/without Dolutegravir” value came out at 0.93.
Consider `O=C([O-])[O-].[Ca+2]` [Calcium carbonate], for which, in data set [2] (setting [18]), the “Geometric Mean Ratio of Dolutegravir AUC with/without Coadministered Drug” value is 0.94, the “Geometric Mean Ratio of Dolutegravir Cmax with/without Coadministered Drug” value is 1.00 and the “Geometric Mean Ratio of Dolutegravir Cτ or C24 with/without Coadministered Drug” value turned out to be 0.90. Also, in data set [2] (setting [19]), the “Geometric Mean Ratio of Dolutegravir AUC with/without Coadministered Drug” value is reported as 0.61, the “Geometric Mean Ratio of Dolutegravir Cmax with/without Coadministered Drug” value is reported as 0.63 and the “Geometric Mean Ratio of Dolutegravir Cτ or C24 with/without Coadministered Drug” value stood at 0.61. In data set [2] (setting [20]), the “Geometric Mean Ratio of Dolutegravir AUC with/without Coadministered Drug” value is 1.09, the “Geometric Mean Ratio of Dolutegravir Cmax with/without Coadministered Drug” value is 1.07 and the “Geometric Mean Ratio of Dolutegravir Cτ or C24 with/without Coadministered Drug” value was 1.08.
On to `CN(CCOc1ccc(NS(C)(=O)=O)cc1)CCc1ccc(NS(C)(=O)=O)cc1` [Dofetilide], for which, in data set [6] (in vivo), the “Effect on Concentration of dofetilide” value is listed as “↑Dofetilide”.
